Legend:
[1] = tested on: subcutaneous pancreatic tumors; assay: Tumor size in mice bearing subcutaneous pancreatic tumors, RF + Gemcitabine; type: in vivo, mouse; details: Gemcitabine 70 mg/Kg intravenously once per week; higher power RF system (0-1200 W); n=5
Procedure: (13A) Mice bearing subcutaneous pancreatic tumors were exposed to either RF, Gemcitabine, or RF+Gemcitabine once per week until the control group tumor size became a burden (n=5 in each group). The RF system used can be seen in (13B) and is a higher power version (0-1200 W) of the portable RF system. RF conditions were similar to that shown in (13B). Gemcitabine was given intravenously at a dosage of 70 mg/Kg. […] (13A) Mice bearing subcutaneous pancreatic tumors were exposed to non-invasive RF, Gemcitabine, or non-invasive RF+Gemcitabine once per week until the control group tumor size became a burden (n=5 in each group). The non-invasive RF system used can be seen in (13B) and is a higher power version (0-1200 W) of the portable RF system. non-invasive RF conditions were similar to that shown in FIG. 13B. Gemcitabine was given intravenously at a dosage of 70 mg/Kg.

Rad51 = assay: Colocalization of Rad51 with γ-H2AX foci at gemcitabine-stalled replication forks; type: cell-based, human; details: Hep3B
Text: FIGS. 15A-15D provide inhibition of Mre11 and Rad51 recruitment at gemcitabine-stalled replication forks by hyperthermia. (15A) Hep3B cells were exposed to hyperthermia and/or gemcitabine. (15B) and (15C) Mre11 and Rad51 were recruited at gemcitabine-stalled replication forks. […] Scale bar=10 μm. (15D) Quantification of data from colocalization experiments. Data are mean Pearson correlation (a.u.) and error bars represent the SD from three independent experiments with 10 replicates each (*P<0.05, **P<0.01). Gem=Gemcitabine; HT=Hyperthermia; N/A=not applicable, i.e., in hyperthermia treated cells BrdU staining is not detected as distinct foci and therefore correlation could not be quantified; ns=not significant, by the Student unpaired two-sided t test in comparison with gemcitabine alone group. Also, see FIGS. 22-24. […]
For immunocytochemistry assay, an indirect immunofluorescence approach was used. […] Cells from an exponentially growing culture were counted and approximately 50,000 cells were seeded in each well of a 12-well plate. […]
The slides were sealed with a conventional nail polish hardener and stored at 4° C. until imaging. […] Exposure settings were set to maximize dynamic range initially and then kept constant across multiple samples to allow quantitative comparisons. […]

Hep3B cells = assay: Cell cycle analysis (BrdU flow cytometry) in Hep3B cells; type: cell-based, human
Procedure: For cell cycle analysis a BrdU-labeling protocol from BrdU Flow Kit (BD Pharmingen, San Diego, Calif.) was used according to the supplied instructions. Data was analyzed using FlowJo 7.63 (Tree Star, Inc., Ashland, Oreg.). For cell cycle analysis, a BrdU-labeling protocol was used to identify cells in S-phase of the cell cycle accurately. Cells were harvested from an exponentially growing culture as described for other experiments and seeded in 6-well plates, approximately 150,000 cells per well. After 24-hours adherent sub-confluent monolayers were noted and cells were exposed to various experimental conditions. At the end of the treatments, cells were washed and sampled at various time points to study the progression of the cell cycle in time. One hour before each time point, cells were pulsed with BrdU (10 μM) for 1 hour. BrdU gets incorporated in the DNA of cells in S-phase along with other nucleotides and can be detected using a mouse FITC conjugated anti-BrdU antibody. A BrdU Flow Kit (BD Pharmingen, San Diego, Calif.) was used according to the supplied instructions without modifications. For counterstaining of DNA content, cells were incubated with 7-amino-actinomycin D (7-AAD) supplied with the kit, on ice for 20 minutes before analysis on a BD LSR II flowcytometer (BD biosciences San Jose, Calif.). Single cell populations were identified using forward and side-scatter profiles. A total of 10,000 events were recorded from a gated single cell population. For 7-AAD fluorescence measurements, a SORP YG laser (561 nm) was used to excite the cells and emission was recorded through a 630LP filter followed by a 660/20 filter. For FITC fluorescence measurements, a SORP blue laser (488 nm) was used to excite the cells and emission was recorded through 505LP filter followed by a 525/50 filter. There was no spectral over-lap between the two emission spectra and compensation was not required. Data was analyzed using FlowJo 7.63 (Tree Star, Inc., Ashland, Oreg.). […] Cell cycle progression was analyzed over time (FIGS. 16 and 17). […]

Nc1ccn([C@@H]2O[C@H](CO)[C@@H](O)C2(F)F)c(=O)n1 [gemcitabine, 2′,2′-difluoro 2′-deoxycytidine]
tumor size, Gemcitabine+RF group compared to other groups [1]: clear reduction in tumor size
mean Pearson correlation, Rad51 with γ-H2AX foci (Rad51; gemcitabine alone (10 μg/ml)): 0.24
mean Pearson correlation, Rad51 with γ-H2AX foci (Rad51; hyperthermia 42.5° C. 75 minutes then gemcitabine 10 μg/ml): 0.44
cell cycle progression, gemcitabine followed by hyperthermia compared with gemcitabine alone (Hep3B cells; 1 μM 24 hours, last two hours at 42.5° C.): much slower progression through late-S and G2/M phases
cell cycle progression (Hep3B cells; 1 μM gemcitabine, 24-hour incubation): completely halts cell cycle progression
cell cycle recovery once gemcitabine is removed (Hep3B cells; after 24 hours 1 μM gemcitabine): cells resume synchronized DNA synthesis in 24 hours
